Values of other authors in patent US20040265230A1, “Compositions and methods for diagnosing and treating colon cancers” (priority 2003, published 2004).

Assays:
[1] = system: lymphoid, myeloid, colon, and prostate cancer cells; conditions: prostate xenografts in nude mice
tumor cells = conditions: read-out: concentration causing 50% growth inhibition of tumor cells

IC50 (tumor cells): 60 nM
Structure (SMILES): CN1CC[C@H](c2c(O)cc(O)c3c(=O)cc(-c4ccccc4Cl)oc23)[C@H](O)C1 [Flavopiridol]
inhibition of cancer cells grown in vivo as tumor xenografts [1]: inhibits
